Measured values as given in patent US12268210B2, “Performic acid on-site generator and formulator” (ECOLAB USA INC., priority 2015, dated 2025).

Key:
SRB or APB populations = experiment: Micro efficacy of field-generated PFA at a salt water disposal well (serial dilution bug bottles); assay type: cell-based; conditions: for log reduction in microbial population: compared to incoming water, serial dilution bug bottles selecting for SRB or APB
Method: The peroxyformic acid generator according to the embodiments depicted in the figures having multiple inlets to provide formic acid blend (formic acid, catalyst and corrosion inhibitor) as well as hydrogen peroxide was evaluated under field conditions at a scale-up volume. The generator was used at a salt water disposal well.
The performance of the chemistry generated in the field according to Example 5 was evaluated for micro efficacy. PFA dosed at 250 ppm (˜25 ppm active) indicates at least reduction in microbial numbers equivalent to 2-3 logs, as shown in FIG. 13. In the figures the GB refers to site of treatment (gun barrel) measurement, whereas SWD refers to the disposal water measurement for micro efficacy.
The percentage reduction of microbial numbers compared to incoming water was also evaluated. Microbial numbers were monitored using traditional serial dilution bug bottles that select for SRB or APB populations.

[1] = cited from earlier work; for half-life: shelf life stability, order of magnitude

Molecule | reduction in microbial numbers (SRB or APB populations; PFA dosed at 250 ppm (~25 ppm active), GB (gun barrel) and SWD (disposal water) measurements, FIG. 13) | log reduction in microbial population (SRB or APB populations; all results) | log reduction in microbial population (SRB or APB populations; in some case) | time to decompose into carbon dioxide and water ([1]; ambient temperature and pressure) | half-life [1]
performic acid [PFA] | 2-3 logs | 2-3 log | 7 log | within a few hours | minutes to hours
CC(=O)OO [peracetic acid, reference compound] |  |  |  |  | weeks to months
